One compound from PMC7729281 (Biochemistry, 2020) can be followed below.

The experiment concerns human platelets. The experiment is described as follows: Ex vivo platelet incubation and lipidomics. In kind it is cell-based. The conditions noted are these: human platelets + DHA, with inhibitor; data not shown.

As for `COc1cccc(CNc2ccc(S(=O)(=O)Nc3nc4ccccc4s3)cc2)c1O` [ML355], the “reduction of 14S-HDHA and 11S-HDHA production” value is recorded as “approximately 70%”.
